In paper PMC6917776, “Discovery of a chemical probe for PRDM9” (Nature Communications, 2019):
Read-outs that look alike come from different tables or passages of the source.

Legend:
Experiment in all cases: Methyltransferase selectivity assay (filter-based, nucleosome substrate)
Type in all cases: biochemical
ASH1L = molecular target: T1, ASH1L (Homo sapiens, UniProt Q9NR48)
T1 construct: purchased Structural Genomics Consortium (SGC Toronto) in-house methyltransferase panel
Procedure: (§1) Selectivity against methyltransferases were determined as described previously. Details of the assays are described in the supplementary methods.
(§2) Methyltransferase selectivity assay1
(§3) The effect of chemical probes and negative controls on the methyltransferase activities of protein, DNA and RNA methyltransferases was tested by radiometric assays using 3H-SAM. […]
(§4) The CPM in the absence of compound or enzyme was defined as 100% activity and background (0%), respectively, for each dataset. […]
(§5) For proteins which were tested with nucleosome as substrate such as DOT1L, NSD1, NSD2, NSD3, and ASH1L, or unbiotinylated Poly(2′-deoxyinosinic-2′-deoxycytidylic acid) (Cat# 81349-500UG, Sigma Aldrich) such as DNMT3A/3L, and DNMT3B/3L, a filter-based assay was used. In this assay, a trichloroacetic acid (TCA) protein precipitation protocol was employed. A 10 µL reaction mixture was incubated at 23°C for 1 h, followed by addition of 50 µL of 10% TCA. The mixture was transferred to filter plates (Millipore, Billerica, MA, USA) that were centrifuged at 2000 rpm (Allegra X-15R; Beckman Coulter, Brea, CA, USA) for 2 min. Samples were washed twice with 10% TCA and once with ethanol (180 µL), and centrifuged. After drying, 100 µL MicroScint-O (Perkin Elmer) was added to each well and the plates were centrifuged to remove the liquid. A 70 µL volume of MicroScint-O was added and the CPM was measured with a TopCount plate reader.

DOT1L = molecular target: T2, DOT1L (Homo sapiens, UniProt Q8TEK3)
T2 construct: purchased Structural Genomics Consortium (SGC Toronto) in-house methyltransferase panel
T2 sequence (Q8TEK3 whole entry): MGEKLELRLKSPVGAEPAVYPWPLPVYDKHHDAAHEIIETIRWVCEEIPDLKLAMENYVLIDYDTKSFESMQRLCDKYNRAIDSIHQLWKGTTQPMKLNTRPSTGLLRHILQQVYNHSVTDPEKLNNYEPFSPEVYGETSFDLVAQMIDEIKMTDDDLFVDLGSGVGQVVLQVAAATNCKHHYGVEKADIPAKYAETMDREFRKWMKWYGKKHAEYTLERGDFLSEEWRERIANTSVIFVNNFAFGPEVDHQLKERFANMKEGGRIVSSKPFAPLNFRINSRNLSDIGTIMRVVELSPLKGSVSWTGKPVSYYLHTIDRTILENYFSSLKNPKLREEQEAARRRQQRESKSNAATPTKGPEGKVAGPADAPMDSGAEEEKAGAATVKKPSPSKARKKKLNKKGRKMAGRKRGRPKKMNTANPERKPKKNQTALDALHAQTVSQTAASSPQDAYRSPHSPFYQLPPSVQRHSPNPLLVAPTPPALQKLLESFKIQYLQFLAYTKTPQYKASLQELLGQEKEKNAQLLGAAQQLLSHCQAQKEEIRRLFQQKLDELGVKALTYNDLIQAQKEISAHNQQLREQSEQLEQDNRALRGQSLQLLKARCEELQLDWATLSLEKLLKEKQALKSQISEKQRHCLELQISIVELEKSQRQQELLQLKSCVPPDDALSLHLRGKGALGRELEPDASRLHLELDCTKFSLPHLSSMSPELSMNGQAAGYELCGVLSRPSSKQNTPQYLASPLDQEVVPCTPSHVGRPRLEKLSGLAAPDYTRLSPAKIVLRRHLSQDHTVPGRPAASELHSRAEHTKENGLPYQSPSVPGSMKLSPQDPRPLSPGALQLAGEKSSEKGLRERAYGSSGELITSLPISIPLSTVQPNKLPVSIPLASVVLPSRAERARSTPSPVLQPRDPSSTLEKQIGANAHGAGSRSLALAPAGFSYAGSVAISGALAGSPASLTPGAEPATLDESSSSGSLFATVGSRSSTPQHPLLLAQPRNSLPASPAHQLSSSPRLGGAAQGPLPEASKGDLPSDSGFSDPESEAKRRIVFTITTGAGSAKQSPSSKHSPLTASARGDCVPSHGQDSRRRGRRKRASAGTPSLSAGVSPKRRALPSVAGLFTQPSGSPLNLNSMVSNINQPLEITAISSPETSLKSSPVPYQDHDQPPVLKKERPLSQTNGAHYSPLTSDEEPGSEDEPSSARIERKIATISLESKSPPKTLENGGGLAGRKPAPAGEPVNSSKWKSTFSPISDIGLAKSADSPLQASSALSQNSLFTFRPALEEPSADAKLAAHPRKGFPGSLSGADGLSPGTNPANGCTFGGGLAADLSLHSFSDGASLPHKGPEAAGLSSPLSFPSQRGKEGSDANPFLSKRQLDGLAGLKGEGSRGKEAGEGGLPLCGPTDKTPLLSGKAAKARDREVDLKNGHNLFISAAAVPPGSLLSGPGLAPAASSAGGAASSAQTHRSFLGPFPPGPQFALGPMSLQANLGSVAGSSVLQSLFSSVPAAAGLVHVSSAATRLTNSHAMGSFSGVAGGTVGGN
Procedure: as §1, §2, §3, §4, §5

NSD1 = molecular target: T3, NSD1 (Homo sapiens, UniProt Q96L73)
T3 construct: purchased Structural Genomics Consortium (SGC Toronto) in-house methyltransferase panel
T3 sequence (Q96L73 whole entry): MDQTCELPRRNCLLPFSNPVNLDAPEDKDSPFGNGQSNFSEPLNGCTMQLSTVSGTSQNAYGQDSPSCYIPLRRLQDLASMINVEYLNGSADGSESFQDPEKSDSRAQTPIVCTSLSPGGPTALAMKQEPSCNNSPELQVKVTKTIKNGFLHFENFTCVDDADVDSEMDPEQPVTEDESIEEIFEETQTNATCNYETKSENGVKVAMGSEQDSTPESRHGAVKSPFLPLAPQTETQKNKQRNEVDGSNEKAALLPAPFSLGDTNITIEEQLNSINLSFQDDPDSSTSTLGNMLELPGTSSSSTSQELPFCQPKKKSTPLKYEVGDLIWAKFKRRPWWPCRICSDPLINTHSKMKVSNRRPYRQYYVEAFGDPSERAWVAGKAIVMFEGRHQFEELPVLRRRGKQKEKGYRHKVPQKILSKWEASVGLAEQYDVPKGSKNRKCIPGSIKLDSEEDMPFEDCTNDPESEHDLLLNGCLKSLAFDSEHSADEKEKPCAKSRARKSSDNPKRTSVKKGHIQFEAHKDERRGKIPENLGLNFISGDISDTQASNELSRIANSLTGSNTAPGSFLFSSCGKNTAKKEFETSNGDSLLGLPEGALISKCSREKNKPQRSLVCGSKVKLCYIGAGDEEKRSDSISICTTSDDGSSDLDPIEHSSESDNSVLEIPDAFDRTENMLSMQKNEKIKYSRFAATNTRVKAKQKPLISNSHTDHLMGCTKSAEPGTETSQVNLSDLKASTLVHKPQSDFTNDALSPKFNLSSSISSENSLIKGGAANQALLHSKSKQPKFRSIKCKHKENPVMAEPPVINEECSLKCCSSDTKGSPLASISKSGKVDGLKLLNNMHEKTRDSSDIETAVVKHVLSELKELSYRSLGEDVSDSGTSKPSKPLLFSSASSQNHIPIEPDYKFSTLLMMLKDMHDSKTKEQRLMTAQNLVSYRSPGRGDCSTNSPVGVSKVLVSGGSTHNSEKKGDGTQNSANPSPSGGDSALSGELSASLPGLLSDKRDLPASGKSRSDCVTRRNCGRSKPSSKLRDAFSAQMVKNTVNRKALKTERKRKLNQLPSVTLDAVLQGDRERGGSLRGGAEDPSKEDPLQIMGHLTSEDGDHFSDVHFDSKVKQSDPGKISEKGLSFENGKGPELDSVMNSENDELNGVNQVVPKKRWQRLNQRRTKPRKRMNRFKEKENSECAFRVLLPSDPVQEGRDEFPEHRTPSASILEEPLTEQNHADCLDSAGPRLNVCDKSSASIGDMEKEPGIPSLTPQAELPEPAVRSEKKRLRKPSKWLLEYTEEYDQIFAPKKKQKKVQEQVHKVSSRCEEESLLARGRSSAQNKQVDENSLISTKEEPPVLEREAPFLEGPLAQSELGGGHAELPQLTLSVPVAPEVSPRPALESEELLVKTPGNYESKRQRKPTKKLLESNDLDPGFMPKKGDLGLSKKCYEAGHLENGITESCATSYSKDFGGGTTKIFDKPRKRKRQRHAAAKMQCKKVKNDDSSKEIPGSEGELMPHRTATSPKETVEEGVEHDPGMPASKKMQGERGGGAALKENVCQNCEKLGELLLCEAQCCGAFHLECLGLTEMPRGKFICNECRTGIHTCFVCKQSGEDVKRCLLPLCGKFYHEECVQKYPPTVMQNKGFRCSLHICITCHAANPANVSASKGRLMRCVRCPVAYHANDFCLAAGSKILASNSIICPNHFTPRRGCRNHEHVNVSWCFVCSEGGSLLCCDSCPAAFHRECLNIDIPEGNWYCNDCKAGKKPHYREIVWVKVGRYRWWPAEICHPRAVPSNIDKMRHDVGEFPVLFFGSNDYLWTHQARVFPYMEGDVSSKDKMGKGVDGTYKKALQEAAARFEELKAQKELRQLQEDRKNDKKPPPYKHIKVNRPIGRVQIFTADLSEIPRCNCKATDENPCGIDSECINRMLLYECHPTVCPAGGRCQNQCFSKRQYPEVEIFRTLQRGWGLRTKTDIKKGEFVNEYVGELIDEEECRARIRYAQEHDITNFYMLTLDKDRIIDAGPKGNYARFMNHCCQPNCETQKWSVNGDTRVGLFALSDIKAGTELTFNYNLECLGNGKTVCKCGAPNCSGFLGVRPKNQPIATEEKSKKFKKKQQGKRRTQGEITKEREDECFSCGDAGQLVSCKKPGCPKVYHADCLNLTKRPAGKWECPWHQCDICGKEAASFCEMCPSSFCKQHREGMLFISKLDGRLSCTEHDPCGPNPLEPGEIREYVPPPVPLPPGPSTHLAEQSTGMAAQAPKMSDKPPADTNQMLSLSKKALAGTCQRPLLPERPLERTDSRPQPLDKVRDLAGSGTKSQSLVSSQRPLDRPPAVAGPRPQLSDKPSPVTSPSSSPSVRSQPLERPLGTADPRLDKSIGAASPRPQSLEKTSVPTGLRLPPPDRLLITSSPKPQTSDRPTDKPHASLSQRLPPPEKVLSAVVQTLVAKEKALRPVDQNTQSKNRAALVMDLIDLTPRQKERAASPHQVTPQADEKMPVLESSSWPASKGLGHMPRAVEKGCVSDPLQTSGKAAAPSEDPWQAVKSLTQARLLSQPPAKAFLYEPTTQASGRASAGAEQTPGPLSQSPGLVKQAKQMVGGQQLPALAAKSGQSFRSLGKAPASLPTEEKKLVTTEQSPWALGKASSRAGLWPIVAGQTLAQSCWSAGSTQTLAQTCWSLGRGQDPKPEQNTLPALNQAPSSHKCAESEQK
Procedure: as §1, §2, §3, §4, §5

NSD3 = molecular target: T4, NSD3 (Homo sapiens, UniProt Q9BZ95); conditions: for activity at 1 µM: 1µM compound; for activity at 10 µM / Activity %: 10µM compound; for Activity %: Exp1, Exp2, 10 µM
T4 construct: purchased Structural Genomics Consortium (SGC Toronto) in-house methyltransferase panel
T4 sequence (Q9BZ95 1-1437): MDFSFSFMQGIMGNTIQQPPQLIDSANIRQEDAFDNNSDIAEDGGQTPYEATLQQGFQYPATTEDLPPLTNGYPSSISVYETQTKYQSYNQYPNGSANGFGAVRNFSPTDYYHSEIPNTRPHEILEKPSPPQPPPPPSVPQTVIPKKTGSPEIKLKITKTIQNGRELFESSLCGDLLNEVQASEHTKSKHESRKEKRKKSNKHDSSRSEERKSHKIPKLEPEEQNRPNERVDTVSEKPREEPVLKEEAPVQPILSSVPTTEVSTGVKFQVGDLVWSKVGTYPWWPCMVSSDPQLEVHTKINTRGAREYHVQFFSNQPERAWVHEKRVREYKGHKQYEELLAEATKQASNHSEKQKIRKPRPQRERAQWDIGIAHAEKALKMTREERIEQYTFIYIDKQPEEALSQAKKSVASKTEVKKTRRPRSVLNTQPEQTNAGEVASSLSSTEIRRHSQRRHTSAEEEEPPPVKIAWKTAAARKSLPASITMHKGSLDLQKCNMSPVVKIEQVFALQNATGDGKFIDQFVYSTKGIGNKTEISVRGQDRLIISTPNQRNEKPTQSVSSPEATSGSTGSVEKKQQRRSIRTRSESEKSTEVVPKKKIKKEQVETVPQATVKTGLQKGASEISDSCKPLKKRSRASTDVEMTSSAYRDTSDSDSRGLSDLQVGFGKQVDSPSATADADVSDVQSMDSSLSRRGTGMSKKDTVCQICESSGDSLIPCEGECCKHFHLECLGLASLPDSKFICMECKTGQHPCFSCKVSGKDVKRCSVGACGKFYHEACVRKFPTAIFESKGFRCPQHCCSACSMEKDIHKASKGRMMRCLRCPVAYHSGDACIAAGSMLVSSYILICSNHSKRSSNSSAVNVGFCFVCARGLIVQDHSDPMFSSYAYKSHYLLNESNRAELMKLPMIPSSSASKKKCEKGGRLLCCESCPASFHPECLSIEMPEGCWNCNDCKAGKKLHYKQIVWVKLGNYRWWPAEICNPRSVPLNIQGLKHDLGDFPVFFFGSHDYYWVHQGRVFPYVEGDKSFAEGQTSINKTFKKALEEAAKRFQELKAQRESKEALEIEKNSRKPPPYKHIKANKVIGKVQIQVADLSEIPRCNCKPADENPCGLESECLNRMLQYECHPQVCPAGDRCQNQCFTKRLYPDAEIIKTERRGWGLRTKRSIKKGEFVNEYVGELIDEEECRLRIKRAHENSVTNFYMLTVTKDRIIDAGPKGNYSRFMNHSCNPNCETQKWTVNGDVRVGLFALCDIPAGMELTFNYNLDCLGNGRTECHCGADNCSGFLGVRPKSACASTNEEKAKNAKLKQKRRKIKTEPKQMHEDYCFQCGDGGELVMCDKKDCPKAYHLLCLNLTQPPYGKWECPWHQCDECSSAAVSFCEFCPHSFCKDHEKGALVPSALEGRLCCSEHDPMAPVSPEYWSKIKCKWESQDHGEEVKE
Procedure: as §1, §2, §3, §4, §5

[1] = 10µM compound, Exp1, Exp2, 10 µM
[2] = 1µM compound, Exp1, Exp2, read-out: Activity %
[3] = 10µM compound, Exp1, Exp2, read-out: Activity %
[4] = Exp1, Exp2, read-out: Activity %

Q: Which results are given for `COc1cc(OC)cc(-c2noc(N3CCN(C)C4(CCN(c5ccccc5)CC4)C3)n2)c1` [MRK-740 -NC]?
A: activity at 1 µM (ASH1L; 1µM compound, Exp1, Exp2): 100%; activity at 10 µM (ASH1L; 10µM compound, Exp1, Exp2): 99%; Activity % (ASH1L; [1]): 98%; activity at 1 µM (DOT1L; 1µM compound, Exp1, Exp2): 104%; Activity % (DOT1L; 1µM compound, Exp1, Exp2, 1 µM): 102%; activity at 10 µM (DOT1L; 10µM compound, Exp1, Exp2): 100%; Activity % (DOT1L; [1]): 99%; activity at 1 µM (NSD1; 1µM compound, Exp1, Exp2): 103%; activity at 10 µM (NSD1; 10µM compound, Exp1, Exp2): 100%; Activity % (NSD1; [1]): 99%; activity at 1 µM (NSD3; Exp1, Exp2): 97%; activity at 10 µM (NSD3; Exp1, Exp2): 95%; Activity % (NSD3): 93%

Q: Which Activity % (ASH1L; 1µM compound, Exp1, Exp2, 1 µM) does the source give for `COc1cc(OC)cc(-c2noc(N3CCN(C)C4(CCN(c5ccnc(C)c5)CC4)C3)n2)c1` [MRK-740] here?
A: 102%

Q: What about the activity at 1 µM (ASH1L; [2]) of the same compound?
A: 113%

Q: What about the activity at 10 µM (ASH1L; [3]) of the same compound?
A: 93%

Q: And the Activity % (DOT1L; 1µM compound, Exp1, Exp2, 1 µM)?
A: 100%

Q: What about the activity at 1 µM (DOT1L; [2]) of the same compound?
A: 98%

Q: What about the activity at 10 µM (DOT1L; [3]) of the same compound?
A: 97%

Q: What about the Activity % (NSD1; 1µM compound, Exp1, Exp2, 1 µM) of the same compound?
A: 97%

Q: And the activity at 1 µM (NSD1; [2])?
A: 96%

Q: What about the Activity % (NSD1; [1]) of the same compound?
A: 98%

Q: And the activity at 10 µM (NSD1; [3])?
A: 106%

Q: And the activity at 1 µM (NSD3; [4])?
A: 89%

Q: What about the Activity % (NSD3) of the same compound?
A: 99%

Q: What about the activity at 10 µM (NSD3; [4]) of the same compound?
A: 95%
